Test results published in PubChem BioAssay (NCI).
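Tested at 5 concentrations; 48 h exposure; 96-well plates; endpoints linearly interpolated, else capped at highest concentration. At the GI50, growth is halved. TGI denotes the concentration required for complete inhibition of growth.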

What was measured:
Assay in all cases: growth of human tumour cells (NCI), 48 h
A549 NSCLC = tested on: A549 NSCLC
A498 renal = tested on: A498 renal
OVCAR-4 ovarian = tested on: OVCAR-4 ovarian
HCT-15 colon = tested on: HCT-15 colon
HL-60(TB) leukemia = tested on: HL-60(TB) leukemia
SNB-75 CNS = tested on: SNB-75 CNS
LOX IMVI melanoma = tested on: LOX IMVI melanoma
SK-MEL-28 melanoma = tested on: SK-MEL-28 melanoma
MCF7 breast = tested on: MCF7 breast
SF-539 CNS = tested on: SF-539 CNS
CCRF-CEM leukemia = tested on: CCRF-CEM leukemia
MOLT-4 leukemia = tested on: MOLT-4 leukemia
MDA-MB-231 breast = tested on: MDA-MB-231 breast
HCT-116 colon = tested on: HCT-116 colon
DU-145 prostate = tested on: DU-145 prostate
SK-MEL-2 melanoma = tested on: SK-MEL-2 melanoma
SR leukemia = tested on: SR leukemia
HOP-62 NSCLC = tested on: HOP-62 NSCLC
NCI-H23 lung = tested on: NCI-H23 lung
HT29 colon = tested on: HT29 colon
BT-549 breast = tested on: BT-549 breast
K-562 leukemia = tested on: K-562 leukemia
HCC-2998 colon = tested on: HCC-2998 colon
EKVX NSCLC = tested on: EKVX NSCLC
UACC-257 melanoma = tested on: UACC-257 melanoma
MDA-N = tested on: MDA-N
UACC-62 melanoma = tested on: UACC-62 melanoma
MALME-3M melanoma = tested on: MALME-3M melanoma
T-47D breast = tested on: T-47D breast
PC-3 prostate = tested on: PC-3 prostate
ACHN renal = tested on: ACHN renal
SN12C renal = tested on: SN12C renal
OVCAR-5 ovarian = tested on: OVCAR-5 ovarian
U251 CNS = tested on: U251 CNS
HOP-92 NSCLC = tested on: HOP-92 NSCLC
IGROV1 ovarian = tested on: IGROV1 ovarian
NCI-H460 lung = tested on: NCI-H460 lung
NCI-H226 lung = tested on: NCI-H226 lung
TK-10 renal = tested on: TK-10 renal
M14 melanoma = tested on: M14 melanoma
SW-620 colon = tested on: SW-620 colon
CAKI-1 renal = tested on: CAKI-1 renal
SF-295 CNS = tested on: SF-295 CNS
NCI-H522 lung = tested on: NCI-H522 lung
SK-OV-3 ovarian = tested on: SK-OV-3 ovarian
SK-MEL-5 melanoma = tested on: SK-MEL-5 melanoma
COLO 205 colon = tested on: COLO 205 colon
OVCAR-8 ovarian = tested on: OVCAR-8 ovarian
KM12 colon = tested on: KM12 colon
HS 578T breast = tested on: HS 578T breast
786-0 renal = tested on: 786-0 renal
SF-268 CNS = tested on: SF-268 CNS
RPMI-8226 leukemia = tested on: RPMI-8226 leukemia
SNB-19 CNS = tested on: SNB-19 CNS
RXF 393 renal = tested on: RXF 393 renal
OVCAR-3 ovarian = tested on: OVCAR-3 ovarian
MDA-MB-435 = tested on: MDA-MB-435
UO-31 renal = tested on: UO-31 renal

CC(=O)OCc1cnc2c3c(nc4ccccc4c13)C(=O)c1cccnc1-2
GI50 (A549 NSCLC): 58.6 nM
TGI (A549 NSCLC): 14900 nM
GI50 (A498 renal): 162 nM
TGI (A498 renal): 790 nM
GI50 (OVCAR-4 ovarian): 32.9 nM
TGI (OVCAR-4 ovarian): 390 nM
GI50 (HCT-15 colon): < 10 nM
TGI (HCT-15 colon): 127 nM
GI50 (HL-60(TB) leukemia): 20.6 nM
GI50 (SNB-75 CNS): 68.3 nM
TGI (SNB-75 CNS): 414 nM
GI50 (LOX IMVI melanoma): < 10 nM
TGI (LOX IMVI melanoma): 51.7 nM
GI50 (SK-MEL-28 melanoma): 174 nM
TGI (SK-MEL-28 melanoma): 614 nM
GI50 (MCF7 breast): < 11.8 nM
TGI (MCF7 breast): 90.4 nM
GI50 (SF-539 CNS): < 13.1 nM
TGI (SF-539 CNS): 82 nM
GI50 (CCRF-CEM leukemia): 25.1 nM
GI50 (MOLT-4 leukemia): 290 nM
TGI (MOLT-4 leukemia): > 20500 nM
GI50 (MDA-MB-231 breast): 131 nM
TGI (MDA-MB-231 breast): 647 nM
GI50 (HCT-116 colon): < 10 nM
TGI (HCT-116 colon): 27 nM
GI50 (DU-145 prostate): < 18.7 nM
TGI (DU-145 prostate): 147 nM
GI50 (SK-MEL-2 melanoma): 482 nM
TGI (SK-MEL-2 melanoma): 1960 nM
GI50 (SR leukemia): < 10 nM
TGI (SR leukemia): > 100000 nM
GI50 (HOP-62 NSCLC): 27 nM
TGI (HOP-62 NSCLC): 163 nM
GI50 (NCI-H23 lung): 118 nM
TGI (NCI-H23 lung): 612 nM
GI50 (HT29 colon): 193 nM
TGI (HT29 colon): 634 nM
GI50 (BT-549 breast): 150 nM
TGI (BT-549 breast): 1760 nM
GI50 (K-562 leukemia): 47.8 nM
GI50 (HCC-2998 colon): 102 nM
TGI (HCC-2998 colon): 535 nM
GI50 (EKVX NSCLC): 187 nM
TGI (EKVX NSCLC): 2600 nM
GI50 (UACC-257 melanoma): 253 nM
TGI (UACC-257 melanoma): 849 nM
GI50 (MDA-N): 110 nM
TGI (MDA-N): 366 nM
GI50 (UACC-62 melanoma): 135 nM
TGI (UACC-62 melanoma): 403 nM
GI50 (MALME-3M melanoma): 22 nM
TGI (MALME-3M melanoma): 205 nM
GI50 (T-47D breast): 827 nM
TGI (T-47D breast): 10500 nM
GI50 (PC-3 prostate): 133 nM
TGI (PC-3 prostate): 2420 nM
GI50 (ACHN renal): < 10 nM
GI50 (SN12C renal): 22.1 nM
TGI (SN12C renal): 318 nM
GI50 (OVCAR-5 ovarian): 435 nM
TGI (OVCAR-5 ovarian): 2230 nM
GI50 (U251 CNS): 23.7 nM
GI50 (HOP-92 NSCLC): 104 nM
TGI (HOP-92 NSCLC): 2770 nM
GI50 (IGROV1 ovarian): 124 nM
TGI (IGROV1 ovarian): 1890 nM
GI50 (NCI-H460 lung): 18.6 nM
TGI (NCI-H460 lung): 147 nM
GI50 (NCI-H226 lung): < 15 nM
TGI (NCI-H226 lung): 121 nM
GI50 (TK-10 renal): 57.3 nM
TGI (TK-10 renal): 420 nM
GI50 (M14 melanoma): 25.5 nM
TGI (M14 melanoma): 125 nM
GI50 (SW-620 colon): < 11.3 nM
TGI (SW-620 colon): 500 nM
GI50 (CAKI-1 renal): < 10 nM
TGI (CAKI-1 renal): 150 nM
GI50 (SF-295 CNS): 172 nM
TGI (SF-295 CNS): 751 nM
GI50 (NCI-H522 lung): 43.4 nM
TGI (NCI-H522 lung): 330 nM
GI50 (SK-OV-3 ovarian): 50 nM
TGI (SK-OV-3 ovarian): 874 nM
GI50 (SK-MEL-5 melanoma): 37.3 nM
TGI (SK-MEL-5 melanoma): 106 nM
GI50 (COLO 205 colon): 321 nM
TGI (COLO 205 colon): 1010 nM
GI50 (OVCAR-8 ovarian): 11.5 nM
TGI (OVCAR-8 ovarian): 109 nM
GI50 (KM12 colon): 167 nM
TGI (KM12 colon): 504 nM
GI50 (HS 578T breast): 271 nM
TGI (HS 578T breast): 1330 nM
GI50 (786-0 renal): < 10 nM
TGI (786-0 renal): 30.5 nM
GI50 (SF-268 CNS): 34.1 nM
TGI (SF-268 CNS): 1010 nM
GI50 (RPMI-8226 leukemia): 168 nM
TGI (RPMI-8226 leukemia): 983 nM
GI50 (SNB-19 CNS): 42.4 nM
TGI (SNB-19 CNS): 959 nM
GI50 (RXF 393 renal): < 34.3 nM
TGI (RXF 393 renal): 841 nM
GI50 (OVCAR-3 ovarian): 30 nM
GI50 (MDA-MB-435): 120 nM
TGI (MDA-MB-435): 527 nM

CSC(SC)=C(C#N)C(=O)Nc1ccc(C)cc1
TGI (A549 NSCLC): > 100000 nM
TGI (OVCAR-4 ovarian): > 100000 nM
TGI (HCT-15 colon): > 100000 nM
TGI (HL-60(TB) leukemia): > 100000 nM
TGI (UO-31 renal): > 100000 nM
TGI (LOX IMVI melanoma): > 100000 nM
TGI (SK-MEL-28 melanoma): > 100000 nM
TGI (MCF7 breast): > 100000 nM
TGI (SF-539 CNS): > 100000 nM
TGI (CCRF-CEM leukemia): > 100000 nM
TGI (MOLT-4 leukemia): > 100000 nM
TGI (MDA-MB-231 breast): > 100000 nM
TGI (HCT-116 colon): > 100000 nM
TGI (DU-145 prostate): > 100000 nM
TGI (SK-MEL-2 melanoma): > 100000 nM
TGI (SR leukemia): > 100000 nM
TGI (HOP-62 NSCLC): > 100000 nM
TGI (NCI-H23 lung): > 100000 nM
TGI (HT29 colon): > 100000 nM
TGI (BT-549 breast): > 100000 nM
TGI (K-562 leukemia): > 100000 nM
TGI (HCC-2998 colon): > 100000 nM
TGI (EKVX NSCLC): > 100000 nM
TGI (UACC-257 melanoma): > 100000 nM
TGI (MDA-N): > 100000 nM
TGI (UACC-62 melanoma): > 100000 nM
TGI (MALME-3M melanoma): > 100000 nM
TGI (T-47D breast): > 100000 nM
TGI (PC-3 prostate): > 100000 nM
TGI (ACHN renal): > 100000 nM
TGI (SN12C renal): > 100000 nM
TGI (OVCAR-5 ovarian): > 100000 nM
TGI (U251 CNS): > 100000 nM
TGI (HOP-92 NSCLC): 54800 nM
TGI (IGROV1 ovarian): > 100000 nM
TGI (NCI-H460 lung): > 100000 nM
TGI (NCI-H226 lung): > 100000 nM
TGI (TK-10 renal): > 100000 nM
TGI (M14 melanoma): > 100000 nM
TGI (SW-620 colon): > 100000 nM
TGI (CAKI-1 renal): > 100000 nM
TGI (SF-295 CNS): > 100000 nM
TGI (NCI-H522 lung): > 100000 nM
TGI (SK-OV-3 ovarian): > 100000 nM
TGI (SK-MEL-5 melanoma): > 100000 nM
TGI (COLO 205 colon): > 100000 nM
TGI (KM12 colon): > 100000 nM
TGI (HS 578T breast): > 100000 nM
TGI (786-0 renal): > 100000 nM
TGI (SF-268 CNS): > 100000 nM
TGI (RPMI-8226 leukemia): > 100000 nM
TGI (SNB-19 CNS): > 100000 nM
TGI (RXF 393 renal): > 100000 nM
TGI (OVCAR-3 ovarian): > 100000 nM
TGI (MDA-MB-435): > 100000 nM
